Test system: streptozocin (STZ)-induced type I diabetes model of neuropathic pain
Assay: streptozocin (STZ)-induced type I diabetes model of neuropathic pain (von Frey mechanical withdrawal threshold)
Type: in vivo
Settings: rats, 10 mpk, as compared to 10 mpk of celecoxib; average of 6 rats (FIG. 3)
Protocol: Diabetic neuropathic pain was modeled using streptozocin which targets and kills the pancreatic beta islet cells rendering the animals with type I diabetes. The rats were acclimated for one hour and tested for baseline thresholds before inducing diabetes. The baseline mechanical withdrawal thresholds were established using the von Frey mechanical nociceptive test with an electronic anesthesiometer (IITC, Woodland Hills, Calif.). Subsequently, streptozocin (55 mg/kg) in saline was injected via tail vein per previously reported methods (Aley, K. O. and Levine J. D. J. Pain 2001, 2, 146.). After five days the allodynia of diabetic rats was confirmed with the von Frey nociceptive assay. Rats were placed in clear acrylic chambers on a steel mesh floor. The hind paw of the rat was probed through the mesh with a rigid tip probe connected to the electronic readout pressure meter set to the maximum hold setting. The withdrawal thresholds per rat were measured 3-5 times at 1 minute intervals for each time point.
The baseline diabetic allodynia was quantified again at the beginning of all test days. The rats were then administered vehicle or sEH inhibitor via oral gavage and tested at 30 min. 1, 2, 3, 4, 5, and 6 h for mechanical withdrawal thresholds. […]

CC(=O)N1CCC(NC(=O)NC23CC4CC(CC(C4)C2)C3)CC1 [UC1153]
pain response (% of baseline; below 60% of baseline is painful state, 100% is lack of enhanced pain detection): significantly alleviate the pain response

Source: patent US9850207B2, “Substituted piperidines as soluble epdxide hydrolase inhibitors” (The Regents of the University of California, priority 2012, dated 2017)
